Patent US20050215548A1 (Cyclacel Limited, priority 2002, published 2005)
Like-named read-outs stand apart in the source and are kept apart here.

How the values were obtained:
HDM2 = target: T1, HDM2 (Homo sapiens, UniProt Q00987); assay: Fluorescence polarisation competitive HDM2 binding assay
T1 construct: Recombinant HDM2 (1.5 μg per well) in TBS-BSA buffer
Method in brief: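 Recombinant HDM2 (1.5 μg/well) was preincubated 5 min at room temperature with serially diluted compound in 50 mM Tris pH 7.4, 150 mM NaCl, 0.1% BSA, 5% DMSO final. Fluorescein-labelled p53 peptide (0.2 μM) was then added for 45 min. Polarisation was read at 485/520 nm and IC50 derived from dose-response curves.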

AGS = assay: 72-h MTT cytotoxicity assay, AGS; type: cell-based; conditions: Homo sapiens
Method in brief: (§1)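 Compounds were incubated with three human tumour lines chosen for genetic contrast, then viability was scored by MTT reduction. AGS is gastric with intact p53, SJSA-1 is bone sarcoma bearing intact p53 and amplified HDM2 expression, and H1299 is lung carcinoma without p53.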

H1299 = assay: 72-h MTT cytotoxicity assay, H1299; type: cell-based; conditions: Homo sapiens
Method in brief: as §1

SJSA-1 = assay: 72-h MTT cytotoxicity assay, SJSA-1; type: cell-based; conditions: Homo sapiens
Method in brief: as §1

HT29 = assay: 72-h MTT cytotoxicity assay, HT29; type: cell-based; conditions: Homo sapiens, HT-29, 72 h; HT29, Colon adenocarcinoma; read-out: Anti-proliferative activity, 72-h MTT IC50
Experimental: (§2) Representative bisarylsulfonamide compounds were tested on a panel of transformed and non-transformed human cell lines, using a standard 72-h MTT cytotoxicity assay [Haselsberger K et al, ibid].

Lovo = assay: 72-h MTT cytotoxicity assay, Lovo; type: cell-based; conditions: Homo sapiens, Colon adenocarcinoma, read-out: Anti-proliferative activity, 72-h MTT IC50
Experimental: as §2

Nci-H460 = assay: 72-h MTT cytotoxicity assay, Nci-H460; type: cell-based; conditions: Homo sapiens, Nci-H460, Large cell lung carcinoma, read-out: Anti-proliferative activity, 72-h MTT IC50
Experimental: as §2

SK-N-MC = assay: 72-h MTT cytotoxicity assay, SK-N-MC; type: cell-based; conditions: Homo sapiens, Neuriepithelioma, read-out: Anti-proliferative activity, 72-h MTT IC50
Experimental: as §2

A549 = assay: 72-h MTT cytotoxicity assay, A549; type: cell-based; conditions: Homo sapiens, A549, Lung carcinoma, read-out: Anti-proliferative activity, 72-h MTT IC50
Experimental: as §2

HCT116 = assay: 72-h MTT cytotoxicity assay, HCT116; type: cell-based; conditions: Homo sapiens, HCT-116, 72 h; HCT116, Colon carcinoma; read-out: Anti-proliferative activity, 72-h MTT IC50
Experimental: as §2

HeLa = assay: 72-h MTT cytotoxicity assay, HeLa; type: cell-based; conditions: Homo sapiens, Cervical carcinoma, read-out: Anti-proliferative activity, 72-h MTT IC50
Experimental: as §2

MCF7 = assay: 72-h MTT cytotoxicity assay, MCF7; type: cell-based; conditions: Homo sapiens, MCF7, Breast adenocarcinoma, read-out: Anti-proliferative activity, 72-h MTT IC50
Experimental: as §2

Messa = assay: 72-h MTT cytotoxicity assay, Messa; type: cell-based; conditions: Homo sapiens, MES-SA, Uterus sarcoma, read-out: Anti-proliferative activity, 72-h MTT IC50
Experimental: as §2

Saos-2 = assay: 72-h MTT cytotoxicity assay, Saos-2; type: cell-based; conditions: Homo sapiens, Saos-2, Osteosracoma, read-out: Anti-proliferative activity, 72-h MTT IC50
Experimental: as §2

U2OS = assay: 72-h MTT cytotoxicity assay, U2OS; type: cell-based; conditions: Homo sapiens, Osteosracoma, read-out: Anti-proliferative activity, 72-h MTT IC50
Experimental: as §2

SKUT-1 = assay: 72-h MTT cytotoxicity assay, SKUT-1; type: cell-based; conditions: Homo sapiens, SK-UT-1, 72 h; SKUT-1, Uterus leiomyosarcoma; read-out: Anti-proliferative activity, 72-h MTT IC50
Experimental: as §2

HS27 = assay: 72-h MTT cytotoxicity assay, HS27; type: cell-based; conditions: Homo sapiens, HS27, Foreskin fibroblasts, read-out: Anti-proliferative activity, 72-h MTT IC50
Experimental: as §2

carcinoma cell lines = assay: 72-h MTT panel, average carcinomas; type: cell-based; conditions: Homo sapiens, average over carcinoma cell lines, read-out: Anti-proliferative activity, 72-h MTT IC50, Average carcinomas
Experimental: as §2
This differential selectivity further supports the notion that the bisarylsulfonamides modulate cellular HDM2 function. It is known that HDM2 amplification is particularly common in soft tissue sarcomas and osteosarcomas [Momand J et al, ibid; Bartel F, Meye A, Wurl P, Kappler M, Bache M, Lautenschlager C, Grunbaum U, Schmidt H, Taubert H; Int. J. Cancer 2001; 95: 168-175].

[1] = test system: E2F transcription factors; assay: E2F reporter gene assay (A549-derived luciferase reporter cell line); type: cell-based; conditions: Homo sapiens
Experimental: A similar system to the p53 reporter assay described above was used, with the exception that it was designed to be responsive to E2F transcription factors rather than p53. An A549-derived cell line stably transfected with an E2F response element and a luciferase reporter gene was created. The genetic expression cassette construct used was from Clontech (Mercury™ Cell Cycle Profiling System). Assays were carried out as described above.
Representative bisarylsulfonamides were tested in the E2F gene reporter assay described in Example 6.

p53 = p53 reporter gene assay (U2OS-derived luciferase reporter cell line); conditions: for Fold induction of luciferase activity: compared to basal luciferase activity, 16-h time point, at concentration of maximal induction; for Concentration (test compound concentration at which the p53 induction was maximal): p53 reporter, U2OS-derived cell line
Experimental: A dual assay assessing both cell viability and p53 response was employed. A U2OS-derived cell line stably transfected with a p53 response element and a luciferase reporter gene was created. […] After seeding of cells into 96-well tissue culture plates, treatment with test compounds, and incubation for the desired duration, the cell proliferation reagent WST-1 (Roche Molecular Biochemicals) was used to determine cell viability. The Bright-Glo™ Luciferase Assay System (Promega) was used to measure luciferase activity. The data from the cell viability assay was used to normalise data from the luciferase assay.

[2] = fluorescence polarisation assay, Table 3, read-out: In vitro competitive HDM2 binding assay IC50
[3] = fluorescence polarisation format, Table 1, read-out: IC50 In vitro competitive HDM2 binding assay
[4] = 72-h MTT, Table 1, read-out: IC50 Anti-proliferative effect on cell line AGS
[5] = 72 h, Gastric adenocarcinoma, Table 2, read-out: Anti-proliferative activity, 72-h MTT IC50
[6] = NCI-H1299, 72 h, H1299, Large cell lung carcinoma, Table 2, read-out: Anti-proliferative activity, 72-h MTT IC50
[7] = NCI-H1299, 72-h MTT, Table 1, read-out: IC50 Anti-proliferative effect on cell line H 1299
[8] = 72 h, SJSA-1, Osteosracoma, Table 2, read-out: Anti-proliferative activity, 72-h MTT IC50
[9] = SJSA-1, 72-h MTT, Table 1, read-out: IC50 Anti-proliferative effect on cell line SJSA-1
[10] = after 3-h treatment with test compounds, read-out: IC50 E2F reporter, Non-synchronised cells
[11] = after 3-h treatment, synchronisation with 0.3 mM mimosine for 24 h, followed by wash-out, read-out: IC50 E2F reporter, Synchronised cells

T1 sequence (Q00987 whole entry): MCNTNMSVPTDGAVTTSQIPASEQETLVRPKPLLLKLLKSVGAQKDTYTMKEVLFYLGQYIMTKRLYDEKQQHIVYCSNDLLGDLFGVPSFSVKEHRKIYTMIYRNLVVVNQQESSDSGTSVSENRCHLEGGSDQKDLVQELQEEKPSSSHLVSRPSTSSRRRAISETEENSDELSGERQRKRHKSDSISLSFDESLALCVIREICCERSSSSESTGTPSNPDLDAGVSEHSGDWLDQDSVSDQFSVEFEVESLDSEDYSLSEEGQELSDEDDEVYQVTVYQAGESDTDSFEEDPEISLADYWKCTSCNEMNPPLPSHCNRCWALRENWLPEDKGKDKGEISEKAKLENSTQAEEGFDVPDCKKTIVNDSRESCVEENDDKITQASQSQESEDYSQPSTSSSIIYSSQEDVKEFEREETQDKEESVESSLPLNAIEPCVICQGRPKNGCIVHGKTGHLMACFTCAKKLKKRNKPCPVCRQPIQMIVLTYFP

| Structure (SMILES) | IC50 (HDM2; [2]) [µM] | IC50 (HDM2; [3]) [µM] | IC50 (AGS; [4]) [µM] | IC50 (AGS; [5]) [µM] | IC50 (H1299; [6]) [µM] | IC50 (H1299; [7]) [µM] | IC50 (SJSA-1; [8]) [µM] | IC50 (SJSA-1; [9]) [µM] | IC50 (HT29) [µM] | IC50 (Lovo) [µM] | IC50 (Nci-H460) [µM] | IC50 (SK-N-MC) [µM] | IC50 (A549) [µM] | IC50 (HCT116) [µM] | IC50 (HeLa) [µM] | IC50 (MCF7) [µM] | IC50 (Messa) [µM] | IC50 (Saos-2) [µM] | IC50 (U2OS) [µM] | IC50 (SKUT-1) [µM] | also measured |
| --- | --- | --- | --- | --- | --- | --- | --- | --- | --- | --- | --- | --- | --- | --- | --- | --- | --- | --- | --- | --- | --- |
| O=[N+]([O-])c1cc(S(=O)(=O)Nc2ccc(F)cc2)sc1Cl [Compound 3, 5-Chloro-4-nitrothiophene-2-sulfonic acid (4-fluorophenyl)amide] | 41.9 ± 5.8 | 41.9 ± 5.8 | 1.5 ± 0.3 | 1.7 | 5.2 | 5.7 ± 0.4 | 14.1 | 17.1 ± 0.4 | 2.3 | 2.3 | 5.2 | 3.8 | 5.9 | 3.5 | 2.7 | 1.9 | 18.3 | 8.9 | 8.2 | 14.1 | IC50 (HS27): 15.2 µM; IC50 (carcinoma cell lines): 3.8 ± 1.8 µM; IC50 [1, 10]: 28.8 ± 2.3 µM; IC50 [1, 11]: 69 ± 30 µM; Fold induction of luciferase activity (p53): 200 fold; Concentration (test compound concentration at which the p53 induction was maximal) (p53): 6 µM |
| O=[N+]([O-])c1cc(S(=O)(=O)Nc2ccc(Cl)cc2)sc1Cl [Compound 2, 5-Chloro-4-nitrothiophene-2-sulfonic acid (4-chlorophenyl)-amide] | 26.4 ± 3.4 | 26.4 ± 3.4 | 1.1 ± 0.2 | 1.2 | 4.4 | 5.1 ± 0.7 | 13.5 | 13.6 ± 1.1 | 2.1 | 2.1 | 3.3 | 3 | 5.2 | 2.8 | 2.8 | 2.7 | 13.1 | 9.5 | 6.2 | 8.8 | IC50 (AGS; Example 9, read-out: anti-proliferative IC50 concentration determined for each cell line): 1 µM; IC50 (H1299; NCI-H1299, H1299, Example 9, read-out: anti-proliferative IC50 concentration determined for each cell line): 5 µM; IC50 (SJSA-1; SJSA-1, Example 9, read-out: anti-proliferative IC50 concentration determined for each cell line): 15 µM; IC50 (HS27): 17.3 µM; IC50 (carcinoma cell lines): 3.1 ± 1.2 µM; IC50 [1, 10]: 23.2 ± 4 µM; Fold induction of luciferase activity (p53): 231 fold; Concentration (test compound concentration at which the p53 induction was maximal) (p53): 6 µM |
| O=[N+]([O-])c1cc(S(=O)(=O)Nc2ccc(C(F)(F)F)cc2)sc1Cl [Compound 6, 5-Chloro-4-nitrothiophene-2-sulfonic acid (4-trifluoromethylphenyl)amide] | 20.4 ± 1.4 | 20.4 ± 1.4 | 2 ± 0.3 | 2.2 | 4.9 | 8.1 ± 1.3 | 17.8 | 22.5 ± 0.6 | 3.5 | 3.9 | 8 | 2.9 | 10 | 6 | 3.9 | 3.3 | 16 | 12 | 10.2 | 15 | IC50 (HS27): 21.4 µM; IC50 (carcinoma cell lines): 4.9 ± 2.3 µM; IC50 [1, 10]: 37.5 ± 12.9 µM; IC50 [1, 11]: 39 µM; Fold induction of luciferase activity (p53): 84 fold; Concentration (test compound concentration at which the p53 induction was maximal) (p53): 5.5 µM |
